How the values were obtained:
PC-3 = experiment: Antiproliferative activity against human PC3 cells after 72 hrs by WST-1 assay; format: functional, cell-based; details: PC-3, 72 h
[1] = Antiproliferative activity against human M12 cells after 72 hrs by WST-1 assay; format: functional, cell-based; details: M12, 72 h
[2] = Cytotoxicity against mouse NIH/3T3 cells after 48 hrs by neutral red uptake assay; format: cell-based, NIH3T3; details: read-out: TC50
[3] = molecular target: C-C chemokine receptor type 5 (Homo sapiens, UniProt P51681); experiment: Antagonist activity at CCR5 (unknown origin) expressed in human MOLT4 cells assessed as inhibition of RANTES-stimulated calcium mobilization treated for 15 mins prior to RANTES addition by spectrophotometric analysis; format: functional, cell-based, MOLT-4
Sequence of C-C chemokine receptor type 5 (P51681 whole entry): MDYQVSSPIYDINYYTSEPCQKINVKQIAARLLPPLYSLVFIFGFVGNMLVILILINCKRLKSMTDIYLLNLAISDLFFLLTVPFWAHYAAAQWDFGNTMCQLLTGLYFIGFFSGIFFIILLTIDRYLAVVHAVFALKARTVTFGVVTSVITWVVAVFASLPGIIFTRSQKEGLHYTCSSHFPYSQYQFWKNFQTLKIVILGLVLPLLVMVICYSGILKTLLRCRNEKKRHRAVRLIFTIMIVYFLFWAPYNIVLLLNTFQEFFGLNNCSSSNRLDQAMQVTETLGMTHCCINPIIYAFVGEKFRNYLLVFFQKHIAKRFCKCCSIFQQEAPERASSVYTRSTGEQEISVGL

| IC50 (PC-3) [µM] | IC50 [3] [µM] | Compound | IC50 [1] [µM] | CC50 at 48 h [2] [µM] |
| --- | --- | --- | --- | --- |
| 71.2 |  | CC(C)Oc1ccc(N2CCN(Cc3ccc(N(C)C)cc3)CC2)cc1NC(=O)c1cnccn1 | 65.9 | > 50 |
| 91.5 |  | COC(=O)c1ccc(CN2CCN(c3ccc(OC(C)C)c(NC(=O)c4cnccn4)c3)CC2)cc1 | 73.7 |  |
| 19.7 |  | Cc1ccc(CN2CCN(c3ccc(OC(C)C)c(NC(=O)c4cnccn4)c3)CC2)cc1 | 15.8 |  |
| 56.1 |  | CC(C)Oc1ccc(N2CCN(Cc3ccc(Cl)cc3)CC2)cc1NC(=O)c1cnccn1 | 26.3 | 1.6 |
| 74 |  | CC(C)Oc1ccc(N2CCN(Cc3ccc(C(=O)O)cc3)CC2)cc1NC(=O)c1cnccn1 | 129 |  |
| > 100 |  | CC(C)Oc1ccc(N2CCN(Cc3ccc(S(C)(=O)=O)cc3)CC2)cc1NC(=O)c1cnccn1 | 141 |  |
| 78 |  | CSc1ccc(CN2CCN(c3ccc(OC(C)C)c(NC(=O)c4cnccn4)c3)CC2)cc1 | > 100 |  |
| 49.1 |  | CC(C)Oc1ccc(N2CCN(Cc3ccc([N+](=O)[O-])cc3)CC2)cc1NC(=O)c1cnccn1 | 78.7 | 29.3 |
| 20.1 |  | CC(C)Oc1ccc(N2CCN(Cc3ccc(N)cc3)CC2)cc1NC(=O)c1cnccn1 | 19.7 | 10.7 |
| 37.9 |  | Cc1ccc(-c2ccc3c(c2)C=C(C(=O)Nc2ccc(C[N+](C)(C)C4CCOCC4)cc2)CCC3)cc1 | 20.4 |  |
| 6.5 |  | CCN(CC)c1ccc(CN2CCN(c3ccc(OC(C)C)c(NC(=O)c4cnccn4)c3)CC2)cc1 | 11.4 | 31.9 |
| 67 |  | CC(C)Oc1ccc(N2CCN(Cc3ccccc3)CC2)cc1NC(=O)c1cnccn1 | 29.9 | 46.6 |
| 62.9 | 16.8 | CC(C)Oc1ccc(N2CCN(Cc3ccccc3[N+](=O)[O-])CC2)cc1NC(=O)c1cnccn1 | 183 | > 50 |
| 31.5 |  | CC(C)Oc1ccc(N2CCN(Cc3ccc(Br)cc3)CC2)cc1NC(=O)c1cnccn1 | 48.8 | > 50 |
| 24.3 |  | CC(=O)Nc1ccc(CN2CCN(c3ccc(OC(C)C)c(NC(=O)c4cnccn4)c3)CC2)cc1 | 39 | 7.8 |
